Experimental data: patent publication US20220313621A1, “FORMULATIONS OF CANNABINOIDS FOR THE TREATMENT OF PSORIASIS” (priority 2017, published 2022)

How the values were obtained:
[1] = Discoloration of CBD solutions; assay type: physicochemical; conditions: end of day 1
From the text: The CBD2 material dissolved like the CBD1 therefore the CBD2 is CBD without the discoloration properties of CBD1.

[2] = molecular target: T1, human vanilloid receptor type 1 (VR1) (Homo sapiens, UniProt Q8NER1); conditions: HEK-hVR1 transfected cells; cited from earlier work
T1 construct: expressed in transfected cells; host or cells: HEK cells transfected with hVR1 (HEK-hVR1)
T1 sequence (Q8NER1 whole entry): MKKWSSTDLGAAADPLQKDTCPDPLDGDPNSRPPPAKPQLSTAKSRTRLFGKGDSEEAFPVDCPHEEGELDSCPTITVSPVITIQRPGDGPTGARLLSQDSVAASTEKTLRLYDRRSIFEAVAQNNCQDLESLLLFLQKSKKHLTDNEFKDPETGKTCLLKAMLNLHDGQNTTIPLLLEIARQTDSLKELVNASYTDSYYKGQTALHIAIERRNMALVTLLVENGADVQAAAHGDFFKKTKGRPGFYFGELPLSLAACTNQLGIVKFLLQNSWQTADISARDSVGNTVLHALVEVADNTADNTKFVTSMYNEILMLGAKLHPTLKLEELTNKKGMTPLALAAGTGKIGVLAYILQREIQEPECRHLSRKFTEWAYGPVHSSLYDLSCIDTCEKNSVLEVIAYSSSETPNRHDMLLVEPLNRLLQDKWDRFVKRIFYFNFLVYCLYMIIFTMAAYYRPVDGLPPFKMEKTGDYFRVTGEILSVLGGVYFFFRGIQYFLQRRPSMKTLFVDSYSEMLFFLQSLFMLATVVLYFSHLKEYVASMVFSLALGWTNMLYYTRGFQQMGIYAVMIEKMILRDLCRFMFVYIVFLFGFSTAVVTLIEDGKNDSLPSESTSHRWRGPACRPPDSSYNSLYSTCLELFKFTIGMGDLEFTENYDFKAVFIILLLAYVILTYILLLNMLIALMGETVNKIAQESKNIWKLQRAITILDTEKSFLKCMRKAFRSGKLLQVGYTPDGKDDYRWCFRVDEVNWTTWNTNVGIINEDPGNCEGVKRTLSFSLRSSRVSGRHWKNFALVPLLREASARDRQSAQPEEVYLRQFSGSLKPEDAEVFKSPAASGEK

[3] = in ethanol; cited from earlier work
anandamide = conditions: rat basophilic leukemia cells; cited from earlier work
[4] = Solubility of CBD in the Receptor Fluid; assay type: physicochemical; conditions: not told, aqueous with cosolvent or surfactant or cyclodextrin; PBS with 0.01 wt % NaN3, 4 wt % hydroxypropyl-cyclodextrin, 1 wt % Brij O20
sensitized guinea-pigs = conditions: 1 mg/kg i.v.; cited from earlier work
[5] = Solubility of CBD in solvents and excipients; assay type: physicochemical
Method: First, the solubility of cannabidiol (CBD) was assessed. The powder looked granulated under the microscope. […] The conclusions from the solubility studies were that OA and IPA were very good solvents and it was surprising that IPA was so much better than ethanol.
Solubility studies: CBD dissolved at the 10% level in AE and barely 9.5% in IPM. Further exploration was not conducted due to the small amount of drug API available for non-GMP work. CBD is soluble greater than 10% but probably not in excess of 20%, as the time to dissolve additional CBD was taking considerably longer.

rats = conditions: 5 mg/kg, i.v., once daily for 4 weeks; cited from earlier work

Question: With `C=C(C)[C@@H]1CCC(C)=C[C@H]1c1c(O)cc(CCCCC)cc1O` [CBD1] as the compound, how does the discoloration of solution [1] read?
Answer: coloured by the end of the day

Question: Which results are given for `C=C(C)C1CCC(C)=CC1c1c(O)cc(CCCCC)cc1O` (stereo not drawn) [CBD, 2-[3-methyl-6-(1-methylethenyl)-2-cyclohexen-1-yl]-5-pentyl-1,3-benzenediol]?
Answer: stimulation of human vanilloid receptor type 1 (VR1) [2]: maximum effect similar in efficacy to that of capsaicin; reported solubility [3]: 3.5%; inhibition of anandamide (anandamide): inhibit anandamide; solubility [4]: > 50 µg/mL; ovalbumin-induced airway obstruction (sensitized guinea-pigs): attenuated ovalbumin-induced airway obstruction; solubility (weight to weight) ([5]; in ethanol): 6-7%; solubility (weight to weight) ([5]; in hexamethyldisiloxane (HDS)): 3-4%; solubility (weight to weight) ([5]; in isopropyl alcohol (IPA)): greater than 14%; solubility ([5]; in isopropyl myristate (IPM)): ~9.5%; solubility (weight to weight) ([5]; in mineral oil): 3-4%; solubility (weight to weight) ([5]; in oleyl alcohol (OA)): greater than 8%; solubility (weight to weight) ([5]; in propylene glycol (PG)): 6-7%; cardiac inflammation produced by doxorubicin (rats): attenuated cardiac inflammation produced by doxorubicin

Question: For `C=C(C)[C@@H]1CCC(C)=C[C@H]1c1c(O)cc(CCCCC)cc1O` [CBD2], which discoloration of solution [1] is on record?
Answer: None of the CBD2 solutions were coloured at the end of day 1
